Source: patent US20200297670A1, “Capsaicin Sequential Dosing Method for Treatment of Morton's Neuroma Pain” (Centrexion Therapeutics Corporation, priority 2016, published 2020)

System: pain due to an intermetatarsal neuroma
Test: Average walking pain due to intermetatarsal neuroma on Numeric Pain Rating Scale (NPRS) after two injected doses of trans-capsaicin
Type: in vivo, human
Details: for reduction in patients' reported average walking pain due to the intermetatarsal neuroma (NPRS): 27 adult human patients
Procedure: Twenty-seven adult, human patients experiencing pain due to an intermetatarsal neuroma were treated by administering a first dose of trans-capsaicin (200 μg of trans-capsaicin) and then, after at least 11 weeks, administered a second dose of trans-capsaicin (200 μg of trans-capsaicin). Patients rated their average walking pain due to the intermetatarsal neuroma on a Numeric Pain Rating Scale (NPRS), where pain is characterized by the patient on a scale of zero to ten (with zero being “no pain”, and ten being “worst possible pain”). Patients rated their average walking pain due to the intermetatarsal neuroma on (i) just prior to receiving the injection of trans-capsaicin and (ii) four (4) weeks after receiving each injection of trans-capsaicin. Patients reported a reduction in average walking pain due to the intermetatarsal neuroma when measured at four weeks after injection of trans-capsaicin for each administration of trans-capsaicin.
trans-Capsaicin was administered to twenty-seven (27) adult, human patients experiencing pain due to an intermetatarsal neuroma according to the procedures described below. Prior to administering the first dose of trans-capsaicin in this study, patients reported an average walking pain due to the intermetatarsal neuroma of at least four on the Numeric Pain Rating Scale (NPRS). Patients received two doses of trans-capsaicin.
trans-Capsaicin was injected in the amount of 200 μg per dose by ultrasound-guided needle placement into the area of the neuroma (but not inserting the needle into the intermetatarsal neuroma itself). The dose of trans-capsaicin was injected as a 2 mL solution containing trans-capsaicin at a concentration of 100 μg/mL. […]
Pain due to the intermetatarsal neuroma was evaluated by having patients rate their average walking pain due to the intermetatarsal neuroma on a Numeric Pain Rating Scale (NPRS), where pain is characterized by the patient on a scale of zero to ten (with zero being “no pain”, and ten being “worst possible pain”). […]

## COc1cc(CNC(=O)CCCCC=CC(C)C)ccc1O [trans-capsaicin, N-[(4-hydroxy-3-methoxyphenyl)methyl]-8-methylnon-6-enamide]
First dose 200 μg trans-capsaicin injected into area of neuroma, four weeks after injection vs prior to first dose
  reduction in patients' reported average walking pain due to the intermetatarsal neuroma (NPRS): 1.6 point
Second dose 200 μg trans-capsaicin (83 to 196 days after first dose), four weeks after injection vs just prior to second dose
  reduction in patients' reported average walking pain due to the intermetatarsal neuroma (NPRS): 2.3 point
Repeat injection, 200 μg per dose, adult human patients
  effect of repeat injection on pain due to an intermetatarsal neuroma: effective in ameliorating pain
